Target: human TRPA1 (Homo sapiens (Human), UniProt O75762)
Test: In vitro inhibition of human TRPA1, whole cell patch configuration
Assay type: cell-based
Conditions: current activation 10 μM AITC, tested concentrations 320 pM to 3.2 μM, read-out: hTRPA1 IC50
Procedure, shortened: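 Whole-cell patch clamp, bath 150 mM NaCl, 10 mM HEPES, 1 mM EGTA, 3 mM MgCl2, pH 7.4 (sometimes 2 mM CaCl2, 1 mM MgCl2). Currents recorded continuously at −60 mV or by 400 ms ramps from −40 mV holding every 4 s; inward/outward currents taken at −80/80 mV, with controlled-temperature focal perfusion.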

Sequence of human TRPA1 (O75762 whole entry): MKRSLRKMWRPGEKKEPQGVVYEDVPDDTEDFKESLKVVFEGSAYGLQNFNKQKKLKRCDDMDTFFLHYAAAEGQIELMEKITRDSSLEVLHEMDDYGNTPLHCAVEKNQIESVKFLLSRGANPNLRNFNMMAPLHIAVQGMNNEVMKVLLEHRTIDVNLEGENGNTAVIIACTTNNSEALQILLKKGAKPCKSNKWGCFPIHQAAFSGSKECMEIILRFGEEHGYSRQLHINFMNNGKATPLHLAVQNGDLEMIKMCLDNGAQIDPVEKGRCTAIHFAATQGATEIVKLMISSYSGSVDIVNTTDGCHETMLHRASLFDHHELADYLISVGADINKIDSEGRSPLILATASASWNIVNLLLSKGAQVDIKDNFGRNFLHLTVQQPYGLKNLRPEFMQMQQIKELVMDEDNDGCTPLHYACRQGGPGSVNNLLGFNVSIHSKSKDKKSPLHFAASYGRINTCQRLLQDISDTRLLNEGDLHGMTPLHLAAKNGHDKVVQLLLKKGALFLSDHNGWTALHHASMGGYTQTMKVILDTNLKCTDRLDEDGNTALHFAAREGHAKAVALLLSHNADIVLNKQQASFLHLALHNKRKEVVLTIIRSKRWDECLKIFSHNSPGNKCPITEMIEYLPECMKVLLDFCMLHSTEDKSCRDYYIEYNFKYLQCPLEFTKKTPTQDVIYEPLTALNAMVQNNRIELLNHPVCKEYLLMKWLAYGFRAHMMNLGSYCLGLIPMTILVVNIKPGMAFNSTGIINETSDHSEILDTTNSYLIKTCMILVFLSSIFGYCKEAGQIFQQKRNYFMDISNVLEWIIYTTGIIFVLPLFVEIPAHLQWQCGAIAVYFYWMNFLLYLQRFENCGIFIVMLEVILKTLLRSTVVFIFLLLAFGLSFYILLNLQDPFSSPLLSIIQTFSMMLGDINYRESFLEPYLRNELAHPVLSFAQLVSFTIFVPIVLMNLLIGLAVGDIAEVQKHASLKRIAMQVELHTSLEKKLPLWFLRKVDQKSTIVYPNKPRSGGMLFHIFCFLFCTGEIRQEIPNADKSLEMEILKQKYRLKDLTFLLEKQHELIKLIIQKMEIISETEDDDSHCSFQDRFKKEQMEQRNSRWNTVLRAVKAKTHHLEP

| IC50 [nM] | SMILES |
| --- | --- |
| 2 | CCC(=O)Cn1c(=O)c2c(ncn2[C@@H](C)C(=O)Nc2csc(-c3cnc(C(F)(F)F)c(C)c3)n2)n(C)c1=O [Compound 83, (S)-2-(3-methyl-2,6-dioxo-1-(2-oxobutyl)-2,3-dihydro-1H-purin-7(6H)-yl)-N-(2-(5-methyl-6-(trifluoromethyl)pyridin-3-yl)thiazol-4-yl)propanamide] |
| 4 | CCC(=O)Cn1c(=O)c2c(ncn2[C@@H](C)C(=O)Nc2cncc(-c3ccc(N4CC5C(C4)C5(F)F)nc3)n2)n(C)c1=O (stereo partly drawn) [Compound 84, (2S)—N-(6-(6-(6,6-difluoro-3-azabicyclo[3.1.0]hexan-3-yl)pyridin-3-yl)pyrazin-2-yl)-2-(3-methyl-2,6-dioxo-1-(2-oxobutyl)-2,3-dihydro-1H-purin-7(6H)-yl)propanamide] |
| 3 | Cc1cc(Cn2c(=O)c3c(ncn3[C@@H](C)C(=O)Nc3ccnc(-c4cnc(C(F)(F)F)c(C)c4)n3)n(C)c2=O)no1 [Compound 85, (S)-2-(3-methyl-1-((5-methylisoxazol-3-yl)methyl)-2,6-dioxo-2,3-dihydro-1H-purin-7(6H)-yl)-N-(2-(5-methyl-6-(trifluoromethyl)pyridin-3-yl)pyrimidin-4-yl)propanamide] |
| 258 | CNC(=O)Cn1c(=O)c2c(ncn2[C@@H](C)C(=O)Nc2cccc(-c3cnc(C(F)(F)F)nc3)n2)n(C)c1=O [Compound 87, (S)-2-(3-methyl-1-(2-(methylamino)-2-oxoethyl)-2,6-dioxo-2,3-dihydro-1H-purin-7(6H)-yl)-N-(6-(2-(trifluoromethyl)pyrimidin-5-yl)pyridin-2-yl)propanamide] |
| 894 | C[C@@H](C(=O)Nc1cccc(-c2cnc(C(F)(F)F)nc2)n1)n1cnc2c1c(=O)n(CC1CCO1)c(=O)n2C (stereo partly drawn) [Compound 88, (2S)-2-(3-methyl-1-(oxetan-2-ylmethyl)-2,6-dioxo-2,3-dihydro-1H-purin-7(6H)-yl)-N-(6-(2-(trifluoromethyl)pyrimidin-5-yl)pyridin-2-yl)propanamide] |
| 3 | CCC(=O)Cn1c(=O)c2c(ncn2[C@@H](C)C(=O)Nc2csc(-c3cnc(C)c(Cl)c3)n2)n(C)c1=O [Compound 90] |
| 2 | Cc1cc(Cn2c(=O)c3c(ncn3[C@@H](C)C(=O)Nc3csc(-c4cnc(C)c(Cl)c4)n3)n(C)c2=O)no1 [Compound 91] |
| 33 | CC(=O)Cn1c(=O)c2c(ncn2[C@@H](C)C(=O)Nc2csc(-c3cnc(C)c(F)c3)n2)n(C)c1=O [Compound 92, (S)—N-(2-(5-fluoro-6-methylpyridin-3-yl)thiazol-4-yl)-2-(3-methyl-2,6-dioxo-1-(2-oxopropyl)-2,3-dihydro-1H-purin-7(6H)-yl)propanamide] |
| > 3200 | Cc1cc(Cn2c(=O)c3c(ncn3[C@@H](C)C(=O)Nc3cccc(-c4nc(=O)o[nH]4)n3)n(C)c2=O)no1 [Compound 93, (S)-2-(3-methyl-1-((5-methylisoxazol-3-yl)methyl)-2,6-dioxo-2,3-dihydro-1H-purin-7(6H)-yl)-N-(6-(5-oxo-2,5-dihydro-1,2,4-oxadiazol-3-yl)pyridin-2-yl)propanamide] |
| 3 | Cc1cc(Cn2c(=O)c3c(ncn3[C@@H](C)C(=O)Nc3csc(-c4cnc(C(F)(F)F)c(C)c4)n3)n(C)c2=O)no1 [Compound 94, (S)-2-(3-methyl-1-((5-methylisoxazol-3-yl)methyl)-2,6-dioxo-2,3-dihydro-1H-purin-7(6H)-yl)-N-(2-(5-methyl-6-(trifluoromethyl)pyridin-3-yl)thiazol-4-yl)propanamide] |
| 9 | C[C@@H](C(=O)Nc1cccc(-c2ccc(C(F)(F)F)nc2)n1)n1cnc2c1c(=O)n(Cc1ccon1)c(=O)n2C [Compound 95, (S)-2-(1-(isoxazol-3-ylmethyl)-3-methyl-2,6-dioxo-2,3-dihydro-1H-purin-7(6H)-yl)-N-(6′-(trifluoromethyl)-[2,3′-bipyridin]-6-yl)propanamide] |
| 2 | Cc1cc(Cn2c(=O)c3c(ncn3[C@@H](C)C(=O)Nc3cncc(-c4cnc(N5CCC[C@H]5C(F)(F)F)nc4)n3)n(C)c2=O)no1 [Compound 96, (S)-2-(3-methyl-1-((5-methylisoxazol-3-yl)methyl)-2,6-dioxo-2,3-dihydro-1H-purin-7(6H)-yl)-N-(6-(2-((S)-2-(trifluoromethyl)pyrrolidin-1-yl)pyrimidin-5-yl)pyrazin-2-yl)propanamide] |
| 3 | CC(=O)Cn1c(=O)c2c(ncn2[C@@H](C)C(=O)Nc2csc(-c3cnc(C)c(C(F)(F)F)c3)n2)n(C)c1=O [Compound 98, (S)-2-(3-methyl-2,6-dioxo-1-(2-oxopropyl)-2,3-dihydro-1H-purin-7(6H)-yl)-N-(2-(6-methyl-5-(trifluoromethyl)pyridin-3-yl)thiazol-4-yl)propanamide] |
| 1 | CCC(=O)Cn1c(=O)c2c(ncn2[C@@H](C)C(=O)Nc2csc(-c3cnc(C)c(C(F)(F)F)c3)n2)n(C)c1=O [Compound 99, (S)-2-(3-methyl-2,6-dioxo-1-(2-oxobutyl)-2,3-dihydro-1H-purin-7(6H)-yl)-N-(2-(6-methyl-5-(trifluoromethyl)pyridin-3-yl)thiazol-4-yl)propanamide] |
| 8 | Cc1cc(Cn2c(=O)c3c(ncn3[C@@H](C)C(=O)Nc3csc(-c4cnc(C)c(F)c4)n3)n(C)c2=O)no1 [Compound 100, (S)—N-(2-(5-fluoro-6-methylpyridin-3-yl)thiazol-4-yl)-2-(3-methyl-1-((5-methylisoxazol-3-yl)methyl)-2,6-dioxo-2,3-dihydro-1H-purin-7(6H)-yl)propanamide] |
| 12 | CCC(=O)Cn1c(=O)c2c(ncn2[C@@H](C)C(=O)Nc2csc(-c3cnc(C)c(F)c3)n2)n(C)c1=O [Compound 101, (S)—N-(2-(5-fluoro-6-methylpyridin-3-yl)thiazol-4-yl)-2-(3-methyl-2,6-dioxo-1-(2-oxobutyl)-2,3-dihydro-1H-purin-7(6H)-yl)propanamide] |
| 1 | Cc1noc(Cn2c(=O)c3c(ncn3[C@@H](C)C(=O)Nc3csc(-c4cnc(C(F)(F)F)c(C)c4)n3)n(C)c2=O)n1 [Compound 107, (S)-2-(3-methyl-1-((3-methyl-1,2,4-oxadiazol-5-yl)methyl)-2,6-dioxo-2,3-dihydro-1H-purin-7(6H)-yl)-N-(2-(5-methyl-6-(trifluoromethyl)pyridin-3-yl)thiazol-4-yl)propanamide] |
| 1 | Cc1noc(Cn2c(=O)c3c(ncn3[C@@H](C)C(=O)Nc3csc(-c4cnc(C)c(C(F)(F)F)c4)n3)n(C)c2=O)n1 [Compound 108, (S)-2-(3-methyl-1-((3-methyl-1,2,4-oxadiazol-5-yl)methyl)-2,6-dioxo-2,3-dihydro-1H-purin-7(6H)-yl)-N-(2-(6-methyl-5-(trifluoromethyl)pyridin-3-yl)thiazol-4-yl)propanamide] |
| 8 | CC(=O)Cn1c(=O)c2c(ncn2[C@@H](C)C(=O)Nc2cncc(-c3cnc(C)c(C(F)(F)F)c3)n2)n(C)c1=O [Compound 109, (S)-2-(3-methyl-2,6-dioxo-1-(2-oxopropyl)-2,3-dihydro-1H-purin-7(6H)-yl)-N-(6-(6-methyl-5-(trifluoromethyl)pyridin-3-yl)pyrazin-2-yl)propanamide] |
| 1 | Cc1cc(Cn2c(=O)c3c(ncn3[C@@H](C)C(=O)Nc3ccnc(-c4cnc(C)c(C(F)(F)F)c4)n3)n(C)c2=O)no1 [Compound 110, (S)-2-(3-methyl-1-((5-methylisoxazol-3-yl)methyl)-2,6-dioxo-2,3-dihydro-1H-purin-7(6H)-yl)-N-(2-(6-methyl-5-(trifluoromethyl)pyridin-3-yl)pyrimidin-4-yl)propanamide] |
| 3 | CC(=O)Cn1c(=O)c2c(ncn2[C@@H](C)C(=O)Nc2ccnc(-c3cnc(C)c(C(F)(F)F)c3)n2)n(C)c1=O [Compound 111] |
| 1 | Cc1cc(Cn2c(=O)c3c(ncn3[C@@H](C)C(=O)Nc3csc(-c4cnc(C)c(C(F)(F)F)c4)n3)n(C)c2=O)no1 [Compound 112, (S)-2-(3-methyl-1-((5-methylisoxazol-3-yl)methyl)-2,6-dioxo-2,3-dihydro-1H-purin-7(6H)-yl)-N-(2-(6-methyl-5-(trifluoromethyl)pyridin-3-yl)thiazol-4-yl)propanamide] |
| 2 | CCC(=O)Cn1c(=O)c2c(ncn2[C@@H](C)C(=O)Nc2cccc(-c3cnc(N4CC5CC5C4)cn3)n2)n(C)c1=O (stereo partly drawn) [Compound 113, (2S)—N-(6-(5-(3-azabicyclo[3.1.0]hexan-3-yl)pyrazin-2-yl)pyridin-2-yl)-2-(3-methyl-2,6-dioxo-1-(2-oxobutyl)-2,3-dihydro-1H-purin-7(6H)-yl)propanamide] |
| 2 | Cc1cc(Cn2c(=O)c3c(ncn3[C@@H](C)C(=O)Nc3ccnc(-c4cnc(N5CCC[C@H]5C(F)(F)F)nc4)n3)n(C)c2=O)no1 [Compound 114, (S)-2-(3-methyl-1-((5-methylisoxazol-3-yl)methyl)-2,6-dioxo-2,3-dihydro-1H-purin-7(6H)-yl)-N-(2′-((S)-2-(trifluoromethyl)pyrrolidin-1-yl)-[2,5′-bipyrimidin]-4-yl)propanamide] |
| 1 | Cc1cc(Cn2c(=O)c3c(ncn3[C@@H](C)C(=O)Nc3cccc(-c4cnc(N5CCC[C@H]5C(F)(F)F)nc4)n3)n(C)c2=O)no1 [Compound 115, (S)-2-(3-methyl-1-((5-methylisoxazol-3-yl)methyl)-2,6-dioxo-2,3-dihydro-1H-purin-7(6H)-yl)-N-(6-(2-((S)-2-(trifluoromethyl)pyrrolidin-1-yl)pyrimidin-5-yl)pyridin-2-yl)propanamide] |
| > 3200 | CCC(=O)Cn1c(=O)c2c(ncn2[C@@H](C)C(=O)Nc2cccc(-c3ccc(C(F)(F)F)nc3)n2)n(C)c1=O [Compound 116, (S)-2-(3-methyl-2,6-dioxo-1-(2-oxobutyl)-2,3-dihydro-1H-purin-7(6H)-yl)-N-(6′-(trifluoromethyl)-[2,3′-bipyridin]-6-yl)propanamide] |

Source: patent US10221177B2 (HYDRA BIOSCIENCES, INC., priority 2014, dated 2019)
